The values below come from BindingDB's records for doi:10.1021/acs.jnatprod.9b00648 (Seoul National University, 2019).

The structures appear in SMILES notation.

The nature of this assay: Inhibition of VEGFR2 in HUVEC assessed as inhibition of VEGF-induced tube formation incubated for 8 hrs by inverted microscopic method.

Turning to `C/C=C(\C)C(=O)O[C@@H]1C2=C(C)C(=O)N[C@]2(O)C[C@@]2(C)O[C@@H]2CC[C@@]2(C)O[C@H]12`, the IC50 came out at 40.4 µM.

The IC50 is the concentration needed to halve the response being measured.
